Results on 11 molecules are retold here after patent US20220046923A1, “HERBICIDAL CINNOLINIUM COMPOUNDS” (SYNGENTA CROP PROTECTION AG, priority 2018, published 2022).

Common to all, as to assay: Post-emergence efficacy, glasshouse spray test
Holding throughout (assay type): in vivo

Test [1] concerns Digitaria sanguinalis (DIGSA). To be noted: evaluated after 13 days; for pest or weed control at 500 g/ha / pest or weed control at 1000 g/ha: Digitaria sanguinalis, post-emergence, 312 h, read-out: Control of weed species DIGSA after post-emergence application (100=total damage to plant; 0=no damage to plant); for pest or weed control at 500 g/ha: application rate 500 g/Ha. The procedure:
(§1) Seeds of a variety of test species were sown in standard soil in pots. After cultivation for 14 days (post-emergence) under controlled conditions in a glasshouse (at 24/16° C., day/night; 14 hours light; 65% humidity), the plants were sprayed with an aqueous spray solution derived from the dissolution of the technical active ingredient formula (I) in a small amount of acetone and a special solvent and emulsifier mixture referred to as IF50 (11.12% Emulsogen EL360 TM+44.44% N-methylpyrrolidone+44.44% Dowanol DPM glycol ether), to create a 50 g/l solution which was then diluted to required concentration using 0.25% or 1% Empicol ESC70 (Sodium lauryl ether sulphate)+1% ammonium sulphate as diluent. The test plants were then grown in a glasshouse under controlled conditions (at 24/16° C., day/night; 14 hours light; 65% humidity) and watered twice daily. After 13 days the test was evaluated (100=total damage to plant; 0=no damage to plant).
(§2) Ipomoea hederacea (IPOHE), Euphorbia heterophylla (EPHHL), Chenopodium album (CHEAL), Amaranthus palmeri (AMAPA), Lolium perenne (LOLPE), Digitaria sanguinalis (DIGSA), Eleusine indica (ELEIN), Echinochloa crus-galli (ECHCG), Setaria faberi (SETFA)

The test system of the next test is Eleusine indica (ELEIN). To be noted: evaluated after 13 days; for pest or weed control at 500 g/ha / pest or weed control at 1000 g/ha: Eleusine indica, post-emergence, 312 h, read-out: Control of weed species ELEIN after post-emergence application (100=total damage to plant; 0=no damage to plant); for pest or weed control at 500 g/ha: application rate 500 g/Ha. The procedure: as §1, §2

The test system of test [2] is Ipomoea hederacea (IPOHE). To be noted: evaluated after 13 days; for pest or weed control at 500 g/ha / pest or weed control at 1000 g/ha: Ipomoea hederacea, post-emergence, 312 h, read-out: Control of weed species IPOHE after post-emergence application (100=total damage to plant; 0=no damage to plant); for pest or weed control at 500 g/ha: application rate 500 g/Ha. As to the method: as §1, §2

Test [3] relates to Amaranthus palmeri (AMAPA). To be noted: evaluated after 13 days; for pest or weed control at 500 g/ha / pest or weed control at 1000 g/ha: Amaranthus palmeri, post-emergence, 312 h, read-out: Control of weed species AMAPA after post-emergence application (100=total damage to plant; 0=no damage to plant); for pest or weed control at 500 g/ha: application rate 500 g/Ha. The procedure:
as §1, §2

Test [4] relates to Chenopodium album (CHEAL). To be noted: evaluated after 13 days; for pest or weed control at 500 g/ha / pest or weed control at 1000 g/ha: Chenopodium album, post-emergence, 312 h, read-out: Control of weed species CHEAL after post-emergence application (100=total damage to plant; 0=no damage to plant); for pest or weed control at 500 g/ha: application rate 500 g/Ha. As to the method:
as §1, §2

The test system of the next test is Lolium perenne (LOLPE). To be noted: evaluated after 13 days; for pest or weed control at 500 g/ha / pest or weed control at 1000 g/ha: Lolium perenne, post-emergence, 312 h, read-out: Control of weed species LOLPE after post-emergence application (100=total damage to plant; 0=no damage to plant); for pest or weed control at 500 g/ha: application rate 500 g/Ha. As to the method: as §1, §2

A further test deals with Setaria faberi (SETFA). To be noted: evaluated after 13 days; for pest or weed control at 500 g/ha / pest or weed control at 1000 g/ha: Setaria faberi, post-emergence, 312 h, read-out: Control of weed species SETFA after post-emergence application (100=total damage to plant; 0=no damage to plant); for pest or weed control at 500 g/ha: application rate 500 g/Ha. As to the method: as §1, §2

For test [5], the system named is Echinochloa crus-galli (ECHCG). To be noted: evaluated after 13 days; for pest or weed control at 500 g/ha / pest or weed control at 1000 g/ha: Echinochloa crus-galli, post-emergence, 312 h, read-out: Control of weed species ECHCG after post-emergence application (100=total damage to plant; 0=no damage to plant); for pest or weed control at 500 g/ha: application rate 500 g/Ha. The procedure: as §1, §2

In test [6] the test system is Euphorbia heterophylla (EPHHL). To be noted: evaluated after 13 days; for pest or weed control at 500 g/ha / pest or weed control at 1000 g/ha: Euphorbia heterophylla, post-emergence, 312 h, read-out: Control of weed species EPHHL after post-emergence application (100=total damage to plant; 0=no damage to plant); for pest or weed control at 500 g/ha: application rate 500 g/Ha. As to the method:
as §1, §2

With `COC(=O)c1ccc2n[n+](CCS(=O)(=O)[O-])ccc2c1` [Compound A100], the pest or weed control at 500 g/ha in test [1] was determined as 10%; with Eleusine indica (ELEIN), 10%; in test [2] it was 30%; in [3] it was 30%; in test [4] it was 30%; with Lolium perenne (LOLPE) it was 0%. The pest or weed control at 500 g/ha with Setaria faberi (SETFA) was found to be 20%; in test [5] it was 10%; in test [6], 40%.
Turning to `O=S(=O)(O)CC[n+]1ccc2ccc(-c3ccccc3)cc2n1` [Compound A78], the pest or weed control at 1000 g/ha in [1] (application rate 1000 g/Ha) was 50%; in the test on Eleusine indica (ELEIN) (application rate 1000 g/Ha), 70%; in test [2] (application rate 1000 g/Ha), 10%; in test [3] (application rate 1000 g/Ha), 20%; in [4] (application rate 1000 g/Ha), 0%; with Lolium perenne (LOLPE) (application rate 1000 g/Ha) it was 0%. Besides, the pest or weed control at 1000 g/ha in the test with Setaria faberi (SETFA) (application rate 1000 g/Ha) stood at 30%; in test [5] (application rate 1000 g/Ha) it was 20%; in test [6] (application rate 1000 g/Ha), 40%.
Take `O=C(O)CC[n+]1ccc2ccccc2n1` [Compound A65]: the pest or weed control at 1000 g/ha in [1] (application rate 1000 g/Ha) was found to be 90%; with Eleusine indica (ELEIN) (application rate 1000 g/Ha) it was 90%; in test [2] (application rate 1000 g/Ha), 60%; in [3] (application rate 1000 g/Ha) it was 80%; in [4] (application rate 1000 g/Ha), 80%; in the test with Lolium perenne (LOLPE) (application rate 1000 g/Ha), 40%. The pest or weed control at 1000 g/ha is 60% in the test on Setaria faberi (SETFA) (application rate 1000 g/Ha), 70% in test [5] (application rate 1000 g/Ha) and 90% in test [6] (application rate 1000 g/Ha).
`CNC(=O)c1c[n+](CCC(=O)O)nc2ccccc12` [Compound A14]: the pest or weed control at 500 g/ha turned out to be 80% in test [1]; 100% with Eleusine indica (ELEIN); 50% in [2]; 100% in test [3]; 90% in [4]; 30% with Lolium perenne (LOLPE). Besides, the pest or weed control at 500 g/ha with Setaria faberi (SETFA) is 80%; in [5], 70%; in [6], 60%.
On to `O=C(O)CCC[n+]1ccc2ccccc2n1` [Compound A17], for which the “Control of weed species DIGSA after post-emergence application (100=total damage to plant; 0=no damage to plant)” value in test [1] (application rate 1000 g/Ha) is on record as 40. Also, the “Control of weed species ELEIN after post-emergence application (100=total damage to plant; 0=no damage to plant)” value in the test with Eleusine indica (ELEIN) (application rate 1000 g/Ha) is listed as 60. Also, in [2] (application rate 1000 g/Ha), the “Control of weed species IPOHE after post-emergence application (100=total damage to plant; 0=no damage to plant)” value was determined as 30. Moreover, the “Control of weed species AMAPA after post-emergence application (100=total damage to plant; 0=no damage to plant)” value in test [3] (application rate 1000 g/Ha) was 70. The “Control of weed species CHEAL after post-emergence application (100=total damage to plant; 0=no damage to plant)” value in test [4] (application rate 1000 g/Ha) amounted to 60. In the test with Lolium perenne (LOLPE) (application rate 1000 g/Ha), the “Control of weed species LOLPE after post-emergence application (100=total damage to plant; 0=no damage to plant)” value came out at 40. Also, the “Control of weed species SETFA after post-emergence application (100=total damage to plant; 0=no damage to plant)” value in the test with Setaria faberi (SETFA) (application rate 1000 g/Ha) came out at 40. Besides, the “Control of weed species ECHCG after post-emergence application (100=total damage to plant; 0=no damage to plant)” value in test [5] (application rate 1000 g/Ha) is 30. The “Control of weed species EPHHL after post-emergence application (100=total damage to plant; 0=no damage to plant)” value in test [6] (application rate 1000 g/Ha) is on record as 40.
For the molecule `O=S(=O)([O-])CC[n+]1ccc2c(F)cccc2n1` [Compound A81], the pest or weed control at 1000 g/ha stood at 20% in test [1] (application rate 1000 g/Ha); 30% in the test on Eleusine indica (ELEIN) (application rate 1000 g/Ha); 10% in test [2] (application rate 1000 g/Ha); 40% in [3] (application rate 1000 g/Ha); 70% in [4] (application rate 1000 g/Ha); 20% in the test with Lolium perenne (LOLPE) (application rate 1000 g/Ha). Moreover, the results for the pest or weed control at 1000 g/ha (in the test on Setaria faberi (SETFA) (application rate 1000 g/Ha); in [5] (application rate 1000 g/Ha); in test [6] (application rate 1000 g/Ha)) were 20%, 20% and 90%, respectively.
In the case of `Cc1c[n+](CCC(=O)O)nc2ccccc12` [Compound A64], the pest or weed control at 1000 g/ha came out at 50% in test [1] (application rate 1000 g/Ha); 50% in the test on Eleusine indica (ELEIN) (application rate 1000 g/Ha); 20% in [2] (application rate 1000 g/Ha); 70% in test [3] (application rate 1000 g/Ha); 70% in test [4] (application rate 1000 g/Ha); 10% in the test with Lolium perenne (LOLPE) (application rate 1000 g/Ha). Besides, the values for the pest or weed control at 1000 g/ha (in the test on Setaria faberi (SETFA) (application rate 1000 g/Ha); in test [5] (application rate 1000 g/Ha); in test [6] (application rate 1000 g/Ha)) were 30%, 40% and 70%, respectively.
With `COC(=O)CC[n+]1ccc2ccccc2n1` [Compound A61], the pest or weed control at 1000 g/ha worked out at 80% in [1] (application rate 1000 g/Ha); 90% in the test on Eleusine indica (ELEIN) (application rate 1000 g/Ha); 60% in test [2] (application rate 1000 g/Ha); 70% in test [3] (application rate 1000 g/Ha); 60% in test [4] (application rate 1000 g/Ha); 10% in the test on Lolium perenne (LOLPE) (application rate 1000 g/Ha). The values for the pest or weed control at 1000 g/ha (in the test with Setaria faberi (SETFA) (application rate 1000 g/Ha); in test [5] (application rate 1000 g/Ha); in [6] (application rate 1000 g/Ha)) were 50%, 60% and 70%, respectively.
Consider `COC(=O)C[n+]1cc(C)c2cc(C)ccc2n1` [Compound A9], for which the pest or weed control at 1000 g/ha was determined as 40% in test [1] (application rate 1000 g/Ha); 70% in the test on Eleusine indica (ELEIN) (application rate 1000 g/Ha); 20% in test [2] (application rate 1000 g/Ha); 10% in test [3] (application rate 1000 g/Ha); 60% in test [4] (application rate 1000 g/Ha); 10% with Lolium perenne (LOLPE) (application rate 1000 g/Ha). Besides, the pest or weed control at 1000 g/ha with Setaria faberi (SETFA) (application rate 1000 g/Ha) amounted to 10%; in test [5] (application rate 1000 g/Ha) it was 10%; in test [6] (application rate 1000 g/Ha), 50%.
Regarding `COC(=O)CCC[n+]1ccc2ccccc2n1` [Compound A16, methyl 4-cinnolin-2-ium-2-ylbutanoate 2,2,2-trifluoroacetate], the pest or weed control at 1000 g/ha in test [1] (application rate 1000 g/Ha) was 40%; in the test on Eleusine indica (ELEIN) (application rate 1000 g/Ha) it was 60%; in test [2] (application rate 1000 g/Ha), 10%; in test [3] (application rate 1000 g/Ha) it was 50%; in test [4] (application rate 1000 g/Ha), 70%; in the test with Lolium perenne (LOLPE) (application rate 1000 g/Ha), 20%. In addition, the pest or weed control at 1000 g/ha with Setaria faberi (SETFA) (application rate 1000 g/Ha) was 50%; in test [5] (application rate 1000 g/Ha), 50%; in [6] (application rate 1000 g/Ha), 40%.
In the case of `COC(=O)c1cccc(C[n+]2ccc3ccccc3n2)c1` [Compound A90], the pest or weed control at 1000 g/ha in test [1] (application rate 1000 g/Ha) was determined as 10%; in the test on Eleusine indica (ELEIN) (application rate 1000 g/Ha), 20%; in test [2] (application rate 1000 g/Ha), 10%; in test [3] (application rate 1000 g/Ha), 20%; in the test on Lolium perenne (LOLPE) (application rate 1000 g/Ha), 0%; in the test with Setaria faberi (SETFA) (application rate 1000 g/Ha) it was 0%. Moreover, the pest or weed control at 1000 g/ha in [5] (application rate 1000 g/Ha) was 10%; in test [6] (application rate 1000 g/Ha), 30%.
